{
  "source": "patent US9073858B2",
  "about": "“Methods of targeted drug development” (priority 2010, dated 2015)",
  "key": {"EGFR": {"target": "T1, EGFR (Homo sapiens, UniProt P00533)", "T1 construct": "endogenous in cells; host or cells: A431 cells (ATCC CRL-1555)", "T1 sequence (P00533 25-1210)": "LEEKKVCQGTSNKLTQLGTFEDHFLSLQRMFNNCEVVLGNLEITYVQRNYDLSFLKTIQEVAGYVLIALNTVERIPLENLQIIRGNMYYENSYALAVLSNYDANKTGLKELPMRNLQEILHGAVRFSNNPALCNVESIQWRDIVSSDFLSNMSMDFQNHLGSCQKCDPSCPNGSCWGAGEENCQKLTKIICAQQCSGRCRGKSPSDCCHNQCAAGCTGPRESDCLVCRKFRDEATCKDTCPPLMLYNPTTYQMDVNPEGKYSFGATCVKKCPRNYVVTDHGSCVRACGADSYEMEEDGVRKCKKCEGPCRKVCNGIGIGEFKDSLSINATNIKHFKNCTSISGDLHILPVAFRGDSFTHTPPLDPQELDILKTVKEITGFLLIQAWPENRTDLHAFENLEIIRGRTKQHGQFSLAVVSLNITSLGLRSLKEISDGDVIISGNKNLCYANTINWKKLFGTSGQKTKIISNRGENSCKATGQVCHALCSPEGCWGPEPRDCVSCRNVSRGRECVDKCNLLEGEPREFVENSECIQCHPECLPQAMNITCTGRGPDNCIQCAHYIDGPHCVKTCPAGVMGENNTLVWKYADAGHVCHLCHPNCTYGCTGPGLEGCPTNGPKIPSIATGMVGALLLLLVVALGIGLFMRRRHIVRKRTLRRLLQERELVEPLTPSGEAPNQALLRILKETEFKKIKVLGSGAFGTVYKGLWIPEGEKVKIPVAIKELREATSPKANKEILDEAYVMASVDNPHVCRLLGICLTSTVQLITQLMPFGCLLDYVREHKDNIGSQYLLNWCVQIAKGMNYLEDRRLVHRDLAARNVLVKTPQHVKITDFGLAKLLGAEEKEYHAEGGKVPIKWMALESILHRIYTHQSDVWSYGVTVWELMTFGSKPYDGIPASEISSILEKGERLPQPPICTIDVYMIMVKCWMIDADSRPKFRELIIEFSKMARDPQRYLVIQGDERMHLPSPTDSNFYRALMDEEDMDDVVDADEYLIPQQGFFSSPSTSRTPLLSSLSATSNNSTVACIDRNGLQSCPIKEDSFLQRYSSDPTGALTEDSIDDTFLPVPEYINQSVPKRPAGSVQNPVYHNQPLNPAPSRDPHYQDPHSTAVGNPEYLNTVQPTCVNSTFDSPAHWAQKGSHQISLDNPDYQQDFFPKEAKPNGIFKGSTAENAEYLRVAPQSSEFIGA", "experiment": "EGFR in-cell Western (ICW) screening protocol", "format": "cell-based", "parameters": "unit not given here", "conditions": "listed as 1505", "how_it_was_run": "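Serum-starved cells treated with compound 4 h at 37 °C, then stimulated with EGF (20 or 0 ng/ml solution added) in its continued presence. In-cell Western on fixed cells: phospho-EGFR (800 channel) normalised to total EGFR (700 channel), % inhibition calculated against EGF-stimulated and unstimulated no-compound wells.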"}, "[1]": {"tested_on": "epithelial carcinoma A431 cell line", "experiment": "MTT Cell Proliferation Assay, A431 cell line", "format": "cell-based", "conditions": "72 h", "how_it_was_run": "(§1)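 Cells plated overnight, then exposed 3 days at 37 °C, 5% CO2 to compound in growth medium with 0.5% FBS and 0.5% DMSO final (0.5% DMSO as control).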"}, "MDBK line": {"tested_on": "MDBK line", "experiment": "MTT Cell Proliferation Assay, MDBK line", "format": "cell-based, bovine", "conditions": "72 h; second value of A431/MDBK pair; read-out: MTT-72 h MDBK", "how_it_was_run": "as §1"}, "[2]": {"target": "T2, EGF binding site, rat liver membranes (Rattus norvegicus, UniProt G3V6K6)", "T2 construct": "Receptor source was rat liver membranes; tissue NovaScreen BioSciences; host or cells: rat liver membranes", "T2 sequence (G3V6K6 25-1209)": "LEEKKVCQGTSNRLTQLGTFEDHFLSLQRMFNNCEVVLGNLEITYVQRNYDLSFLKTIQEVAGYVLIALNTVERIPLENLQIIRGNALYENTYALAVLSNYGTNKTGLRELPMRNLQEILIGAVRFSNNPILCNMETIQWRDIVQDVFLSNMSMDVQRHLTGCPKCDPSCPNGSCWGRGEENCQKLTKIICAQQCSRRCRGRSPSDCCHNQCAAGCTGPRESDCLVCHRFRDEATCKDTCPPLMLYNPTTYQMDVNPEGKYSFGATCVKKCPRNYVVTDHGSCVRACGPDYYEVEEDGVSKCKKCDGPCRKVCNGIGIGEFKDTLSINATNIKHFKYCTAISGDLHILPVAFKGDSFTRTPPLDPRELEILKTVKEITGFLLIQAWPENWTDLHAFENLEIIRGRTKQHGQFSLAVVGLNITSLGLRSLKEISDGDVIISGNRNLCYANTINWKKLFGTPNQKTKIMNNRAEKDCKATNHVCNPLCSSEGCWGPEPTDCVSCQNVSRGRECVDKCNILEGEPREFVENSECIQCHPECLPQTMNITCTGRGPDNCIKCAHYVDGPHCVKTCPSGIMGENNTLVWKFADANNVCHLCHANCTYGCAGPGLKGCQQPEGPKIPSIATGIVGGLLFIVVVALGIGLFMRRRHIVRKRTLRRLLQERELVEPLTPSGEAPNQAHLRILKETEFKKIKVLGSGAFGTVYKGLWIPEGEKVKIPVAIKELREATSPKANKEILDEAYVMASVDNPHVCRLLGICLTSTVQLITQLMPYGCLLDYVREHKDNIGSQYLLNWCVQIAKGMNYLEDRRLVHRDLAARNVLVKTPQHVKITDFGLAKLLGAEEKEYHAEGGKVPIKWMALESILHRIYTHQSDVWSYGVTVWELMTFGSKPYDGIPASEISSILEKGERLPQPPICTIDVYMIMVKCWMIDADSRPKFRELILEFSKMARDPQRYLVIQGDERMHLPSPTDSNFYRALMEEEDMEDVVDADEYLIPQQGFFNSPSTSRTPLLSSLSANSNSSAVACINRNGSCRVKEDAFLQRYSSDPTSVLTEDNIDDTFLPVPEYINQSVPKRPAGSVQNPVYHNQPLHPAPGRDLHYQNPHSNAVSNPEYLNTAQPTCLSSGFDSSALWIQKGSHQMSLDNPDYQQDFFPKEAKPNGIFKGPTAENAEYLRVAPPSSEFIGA", "experiment": "Inhibition of [125I]EGF binding (NovaScreen EGF inhibitor assay)", "protocol": "Identified compounds, representing various pharmacaphore models, were tested for ability to inhibit EGFR at 25 μM.\nAD4-compounds were identified using pharmacophore models (see Example 3) and then were docked with the binding site of EGFR (SEQ ID NO: 1) that is recognized by defined CDRs of cetuximab.\nReceptor source was rat liver membranes. The radioligand was [^125I]EGF ([…]) at a final ligand concentration of 0.36 nM. A non-specific determinant was used as EGF—[100 nM]. The reference compound and positive control was EGF. Reactions were carried out in 10 mM HEPES (pH 7.4) containing 0.1% BSA at 25° C. for 60 minutes. The reaction was terminated by rapid vacuum filtration onto glass fiber filters. Radioactivity trapped onto the filters was determined and compared to control values to ascertain any interactions of test compounds with the EGF binding site. The EGF inhibitor assays were modified from, for example, Mukku (1984) J. Biol. Chem. 259, 6543-6546; Duh et al. (1990) World J. Surgery 14, 410-418; Lokeshwar et al. (1989) J. Biol. Chem. 264(32), 19318-19326."}, "[3]": {"tested_on": "EGF receptor-mediated cell proliferation", "experiment": "Combinatorial studies with known EGFR inhibitors, median effect analysis (MTT assay)", "conditions": "for DRI @ ED97: Dose Reduction Index", "quoted_text": "Studies were initiated to evaluate the ability of various compounds disclosed herein to synergize with several compounds known to inhibit the function of the EGF receptor in a cell proliferation assay (MTT assay).\nThe EGFR inhibitor and AD4 compound dilutions were then mixed 1:1 in a 96 well plate. 50 μl of the mix was then added to the cell plate.\nA shifting of the inhibitor curve to the left indicates an increase in the effectiveness of the AD4-compound."}},
  "data": [
    {"smiles": "COc1ccc(C(Nc2cc(C)ccn2)c2ccc3cccnc3c2O)cc1O", "note": "(centres unmarked) [AD4-1505]", "values": [
      {"measurement": "ICW Screen", "setting": "EGFR; initial screen", "value": 55.71},
      {"measurement": "ICW Re-Test", "setting": "EGFR; re-test", "value": 47.05},
      {"measurement": "IC50", "setting": "[1]; first value of A431/MDBK pair, read-out: MTT-72 h A431", "value": 8.36, "unit": "µM"},
      {"measurement": "MTT-72 h A431/MDBK (ratio)", "setting": "[1]; value in brackets, numerically MDBK value over A431 value, listed as 1505", "value": 1.12},
      {"measurement": "IC50", "setting": "MDBK line", "value": 9.33, "unit": "µM"},
      {"measurement": "inhibition of epidermal growth factor binding", "setting": "[2]", "value": "inhibitor of epidermal growth factor binding to its receptor"},
      {"measurement": "CI @ ED90", "setting": "[3]; Combination Index with Iressa at 90% inhibition", "value": 0.59},
      {"measurement": "CI @ ED90", "setting": "[3]; Combination Index with Tykerb at 90% inhibition", "value": 0.10},
      {"measurement": "DRI @ ED97", "setting": "[3]; effect of the test compound on Iressa", "value": 78},
      {"measurement": "DRI @ ED97", "setting": "[3]; effect of the test compound on Tykerb", "value": 203},
      {"measurement": "synergy with Iressa", "setting": "[3]; based on CI value", "value": "shows synergy"},
      {"measurement": "synergy with Tykerb", "setting": "[3]; based on CI value", "value": "significant synergy"},
      {"measurement": "shift in Tykerb's dose-response curve", "setting": "[3]; in combination with Tykerb", "value": "leftward shift (i.e., greater potency)"},
      {"measurement": "IC50", "setting": "[3]; read-out: IC50 Iressa + Compound (nM)", "value": 133, "unit": "nM"}
    ]}
  ]
}
